This note sets out measurements from PubChem BioAssay (NCI).

Some test systems named below: OVCAR-4 ovarian; NCI-H226 lung; UACC-257 melanoma; HS 578T breast; K-562 leukemia; EKVX NSCLC; NCI/ADR-RES ovarian; SF-295 CNS; MDA-N; SNB-19 CNS; ACHN renal; 786-0 renal; NCI-H23 lung; UACC-62 melanoma; NCI-H460 lung; SW-620 colon; MDA-MB-435; KM12 colon; U251 CNS.
What all share (assay): DTP human tumour cell line panel, 48 h

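1) Cells in 96-well plates. 2) Compound, 48 h, 5 concentrations. 3) Linear interpolation between surrounding doses. 4) Unreached endpoint = highest concentration. TGI marks complete inhibition of growth.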 Bounds are passed on as bounds.

What is called TGI is the concentration at which net growth stops. Lower therefore signals greater sensitivity of the cells. Turning to `COc1ccc([C@H](NC(=O)c2ccccc2)[C@@H](O)C(=O)O[C@H]2C[C@@]3(O)C(OC(=O)c4ccccc4)C4[C@](C)(C(=O)[C@H](OC(C)=O)C(=C2C)C3(C)C)[C@@H](O)C[C@H]2OC[C@@]42OC(C)=O)cc1` (some centres not stated), the TGI is > 10 µM with OVCAR-4 ovarian; > 10 µM with NCI-H226 lung; > 10 µM in the test with UACC-257 melanoma; 0.0122 µM in the test with HS 578T breast; > 10 µM in the test with K-562 leukemia; > 10 µM in the test with EKVX NSCLC. The TGI in the test on NCI/ADR-RES ovarian was > 10 µM; in the test on SF-295 CNS, 2.92 µM; with MDA-N, > 10 µM; with SNB-19 CNS, > 10 µM; in the test on ACHN renal, > 10 µM; in the test on 786-0 renal, > 10 µM. The TGI in the test with NCI-H23 lung, in the test with UACC-62 melanoma, in the test on NCI-H460 lung and with SW-620 colon was > 10 µM throughout.
For the molecule `C/C(=N/NC(=S)NCCc1ccccn1)c1cnccn1`, the concentration for total growth inhibition (TGI) in the test with OVCAR-4 ovarian, in the test on UACC-257 melanoma, with MDA-MB-435, in the test on HS 578T breast, with KM12 colon and in the test with EKVX NSCLC was > 100 µM throughout. Also, the concentration for total growth inhibition (TGI) is 63.8 µM in the test with SF-295 CNS; > 100 µM in the test on MDA-N; > 100 µM in the test with U251 CNS; > 100 µM in the test with SNB-19 CNS; > 100 µM with ACHN renal; 57.2 µM in the test with 786-0 renal. The TGI is > 100 µM with NCI-H23 lung, 64.1 µM with UACC-62 melanoma, > 100 µM in the test on NCI-H460 lung and > 100 µM in the test with SW-620 colon.
As for `Nc1ncc(CN2CCOCC2)c(-c2ccccc2O)n1`, the TGI in the test with OVCAR-4 ovarian, in the test on NCI-H226 lung, in the test with UACC-257 melanoma, with MDA-MB-435, in the test on HS 578T breast and in the test on K-562 leukemia was > 100 µM each time. Further, the TGI in the test on KM12 colon, in the test on EKVX NSCLC, in the test on NCI/ADR-RES ovarian, in the test on SF-295 CNS, with MDA-N and in the test on U251 CNS was > 100 µM in each case. Further, the TGI with ACHN renal, with 786-0 renal, in the test on NCI-H23 lung, in the test with UACC-62 melanoma, in the test on NCI-H460 lung and in the test on SW-620 colon was > 100 µM throughout.
On to `Cc1nn(C(=O)Cc2ccccc2)c2c1C(c1ccccc1[N+](=O)[O-])SC(N)=N2` (configuration not stated), for which the TGI with NCI-H226 lung, in the test on UACC-257 melanoma, in the test on MDA-MB-435, with HS 578T breast, with K-562 leukemia and with KM12 colon was > 100 µM each time. Further, the TGI with EKVX NSCLC, in the test on SF-295 CNS, in the test on MDA-N, with SNB-19 CNS, in the test with ACHN renal and with 786-0 renal was > 100 µM each time. For the same molecule, the TGI with NCI-H23 lung, with UACC-62 melanoma, with NCI-H460 lung and in the test on SW-620 colon was > 100 µM in each case.
Turning to `O=C(NCC(C(=O)OCc1ccccc1)C(=O)OCc1ccccc1)OCc1ccccc1`, the TGI in the test with NCI-H226 lung, in the test with UACC-257 melanoma, in the test on MDA-MB-435, with HS 578T breast, with K-562 leukemia and with KM12 colon was > 100 µM each time. The TGI in the test with EKVX NSCLC, in the test with NCI/ADR-RES ovarian, with SF-295 CNS, in the test with MDA-N, in the test on U251 CNS and with SNB-19 CNS was > 100 µM in each case. Besides, the concentration for total growth inhibition (TGI) in the test with ACHN renal, in the test with 786-0 renal, in the test on NCI-H23 lung, in the test on UACC-62 melanoma, in the test on NCI-H460 lung and with SW-620 colon was > 100 µM each time.
On to `Cc1cc(N)ccc1C=O`, for which the TGI with OVCAR-4 ovarian, in the test on NCI-H226 lung, with UACC-257 melanoma, with MDA-MB-435, in the test with HS 578T breast and in the test with K-562 leukemia was > 100 µM throughout. For the same molecule, the TGI in the test with KM12 colon, in the test on EKVX NSCLC, in the test with NCI/ADR-RES ovarian, in the test with MDA-N, in the test with U251 CNS and in the test on SNB-19 CNS was > 100 µM each time. The TGI in the test with ACHN renal, in the test on 786-0 renal, in the test with NCI-H23 lung, in the test with UACC-62 melanoma, in the test with NCI-H460 lung and in the test on SW-620 colon was > 100 µM each time.
In the case of `CC[N+]1(C)CCC(O)(/C=C/c2ccc(Cl)cc2)C(C(=O)/C=C/c2ccc(Cl)cc2)C1` (configuration not stated), the TGI in the test with OVCAR-4 ovarian was > 67.2 µM; with UACC-257 melanoma, > 52 µM; with MDA-MB-435, 22.4 µM; with HS 578T breast, > 30.1 µM; with K-562 leukemia it was 5.71 µM; in the test with KM12 colon, 10.3 µM. Besides, the TGI with EKVX NSCLC was > 57.3 µM; in the test with NCI/ADR-RES ovarian, 39.7 µM; in the test with SF-295 CNS, 37 µM; in the test with MDA-N, > 34.4 µM; in the test with U251 CNS, 20.8 µM; with SNB-19 CNS it was 17.4 µM. Further, the TGI in the test on ACHN renal was 13.6 µM; in the test with 786-0 renal it was > 26.5 µM; with NCI-H23 lung, 30.3 µM; in the test on UACC-62 melanoma, 37.4 µM; in the test on NCI-H460 lung it was > 28.2 µM.
For `COc1cc(C2(O)c3ccccc3C3=NCCN32)cc(OC)c1OC` (configuration not stated), the TGI in the test on OVCAR-4 ovarian, in the test with NCI-H226 lung, in the test on UACC-257 melanoma, in the test with MDA-MB-435, with HS 578T breast and in the test with K-562 leukemia was > 100 µM throughout. Besides, the TGI in the test with KM12 colon, in the test with NCI/ADR-RES ovarian, in the test with SF-295 CNS, with MDA-N, in the test with U251 CNS and with SNB-19 CNS was > 100 µM in each case. Moreover, the TGI with ACHN renal, with 786-0 renal, in the test on NCI-H23 lung, with UACC-62 melanoma, in the test with NCI-H460 lung and with SW-620 colon was > 100 µM throughout.
